The text below walks through data of patent US11246844B2, “Methods for inhibiting conversion of choline to trimethylamine (TMA)” (The Procter & Gamble Company, priority 2016, dated 2022).

Where two headings read alike, the source gives them in different places.

One test deals with plasma TMAO. Nature of the test: Preclinical screening method: plasma TMAO in mice on 1% Choline Added diet (Example 3). It counts as in vivo, mice (C57bl/6). The settings on record: Mus musculus, read-out: Remaining plasma TMAO as percentage of plasma TMAO in same day vehicle control (% of control remaining). Here is the method:
Starting at day 0, mice (C57bl/6, ˜19 g, 10 wk of age; n=5/group) were maintained in accordance with the NIH guidelines in a 12:12 hr light:dark cycle and provided with 1% Choline Added diet (Envigo custom formulation prepared, similar to Teklad Global Rodent Diet 2018) ad libitum. Concurrent with introduction of the diet mice were gavaged once daily orally using a 1.5″ 22G ball-tip curved feeding needle to administer compound in 200 μl or less of water at one or multiple of the dose 0, 1.0, 3.1, 10, 31, 100 or 310 mg/kg/day. Urine was collected once daily in the morning. Animals were restrained by hand and bladder was expressed by gentle palpation of the pelvic region. Aliquots of 1-5 μl of urine were centrifuged at 1,300×g for 5 min in a 1.5 mL conical bottom tube with a snap top, to precipitate any potential cellular debris, and supernatants were transferred to a clean screw-cap tube with o-ring seal and stored at −80° C. until analysis. Sixty microliters or less of blood was collected at 20 hours post gavage, into a heparinized capillary tube. Blood was kept at 4° C., then spun using a centrifuge (5 min in centrifuge designed to capillary tubes) to separate plasma and hematocrit within 4 hours after collection. Plasma samples were stored at −80° C.
For measurement of TMA in plasma, samples were acidified (10 mM HCl final) prior to storage at −80° C. TMAO and trimethylamine (TMA) and their d9-isotopologues were quantified using stable isotope dilution HPLC with on-line electrospray ionization tandem mass spectrometry ([…]) methods as described in (Wang Z, Klipfell E, Bennett B J, et al. (2011) Gut flora metabolism of phosphatidylcholine promotes cardiovascular disease. Nature 472:57-63) using d4(1,1,2,2)-choline, d3(methyl)-TMAO, and d3(methyl)-TMA as internal standards. Concentrations of TMAO in urine were adjusted for urinary dilution by analysis of urine creatinine concentration. Samples were taken at different days during the studies and different doses were administered to avoid side effects at higher doses of some of the compounds.

In a further test the test system is Pseudomonas aeruginosa. The settings on record: growth on glycine betaine and dimethyl glycine; cited from earlier work.
Test [1] relates to Proteus mirabilis 29906 (Pm) lysate. Description: Inhibition of conversion of choline to TMA in Proteus mirabilis lysate (Example 2). It counts as biochemical. The settings on record: read-out: TMA Inhibition (IC50, mol/L).
Setting [2] is: 24 h, mice, oral gavage once daily, 310 mg/kg/day, day 1, blood 20 hours post gavage.
[3] abbreviates: 72 h, mice, oral gavage once daily, 310 mg/kg/day, day 3, blood 20 hours post gavage.
The mark [4] stands for this setting: Pm lysate 1.5 mg/mL protein, 50 μM d9-choline chloride, 37° C., two hours, d9-TMA by LC-MS/MS.

`C#CC[N+](C)(C)CC(=O)O`: in the test with plasma TMAO (72 h, mice, oral gavage once daily, 100 mg/kg/day, day 3, blood 20 hours post gavage), the response vs control in vivo at 100 mg/kg/day is 6.06%.

As to `C#CC[N+](C)(C)CC(=C)C(=O)OC` [2-(methoxycarbonyl)-N,N-dimethyl-N-(prop-2-yn-1-yl)prop-2-en-1-aminium bromide], the response vs control in vivo at 310 mg/kg/day in the test on plasma TMAO (setting [2]) came to 69%. With `C#CC[N+](C)(C)CC(=C)C#N` [2-cyano-N,N-dimethyl-N-(prop-2-yn-1-yl)prop-2-en-1-aminium bromide], the response vs control in vivo at 310 mg/kg/day in the test on plasma TMAO (setting [2]) was 46.2%. Consider `C#CC[N+](C)(C)CCCCC(=O)O` [4-carboxy-N,N-dimethyl-N-(prop-2-yn-1-yl)butan-1-aminium bromide], for which the response vs control in vivo at 310 mg/kg/day in the test on plasma TMAO (setting [2]) turned out to be 64.4%. As for `C#CC[N+](C)(C)CCO` [ID 21, N-(2-hydroxyethyl)-N,N-dimethyl-2-propyn-1-aminium bromide], in the test with plasma TMAO (setting [3]), the response vs control in vivo at 310 mg/kg/day is 0.94%. Further, the “Growth of P. aeruginosa on GB and DMG” value in the test with Pseudomonas aeruginosa was “inhibited”. Consider `C#CC[N+](C)(C)C` [ID 33, trimethyl(prop-2-ynyl)ammonium iodide], for which the response vs control in vivo at 310 mg/kg/day in the test on plasma TMAO (po, 72 h) stood at 0.41%. With `C#CC[N+](C)(C)CCl` [ID 40, chloromethyl-dimethyl-prop-2-ynyl-ammonium iodide], in the test with plasma TMAO (po, 24 h), the response vs control in vivo at 310 mg/kg/day was 0.43%. As to `C#CC[N+](C)(C)CBr` [ID 41, bromomethyl-dimethyl-prop-2-ynyl-ammonium bromide], in the test on plasma TMAO (setting [3]), the response vs control in vivo at 310 mg/kg/day is 0.23%. With `C#CC[N+](C)(C)CI` [ID 42, iodomethyl-dimethyl-prop-2-ynyl-ammonium iodide], the response vs control in vivo at 310 mg/kg/day with plasma TMAO (setting [3]) is 0.1%.

As for `C[N+](C)(CCO)CC1CO1` (stereo not drawn) [compound 24, 2-hydroxy-N,N-dimethyl-N-(oxiran-2-ylmethyl)ethan-1-aminium], the IC50 in test [1] (setting [4]) stood at 1940 nM. Regarding `C=CC[N+](C)(C)CCO` [compound 25], in test [1] (setting [4]), the IC50 came out at 6710 nM. As for `C#CC[N+](CC#C)(CC#C)CCO` [compound 26, N-(2-hydroxyethyl)-N,N-di(prop-2-yn-1-yl)prop-2-yn-1-aminium], the IC50 in test [1] (setting [4]) turned out to be 31700 nM.

Take `C=CC(=O)OCC[N+](C)(C)C` [compound 27, 2-(acryloyloxy)-N,N,N-trimethylethan-1-aminium]: the IC50 in test [1] is 68700 nM. As to `C#CC[N+](C)(C)CCCO` [compound 28, N-(3-hydroxypropyl)-N,N-dimethylprop-2-yn-1-aminium], the IC50 in test [1] (setting [4]) came to 117000 nM. `C[N+](C)(CC#N)CCO` [compound 29, N-(cyanomethyl)-2-hydroxy-N,N-dimethylethan-1-aminium]: the IC50 in test [1] (setting [4]) worked out at 335000 nM. With `C=CC[N+](CC=C)(CC=C)CC=C` [compound 30, N,N,N-tri(prop-2-en-1-yl)prop-2-en-1-aminium], the IC50 in test [1] (setting [4]) was 694000 nM.

Regarding `C#CC[N+](C)(C)CC(=O)O` [compound 31], in test [1] (setting [4]), the IC50 was 1810 nM.

For the compound `C/C=C/C[N+](C)(C)CCO` [compound 32, [(E)-but-2-enyl]-(2-hydroxyethyl)-dimethyl-ammonium], the IC50 in test [1] (setting [4]) amounted to 899 nM. With `C#CC[N+](C)(C)C` [compound 33], the IC50 in test [1] (setting [4]) is 0.115 nM. In the case of `C#CC[N+](C)(C)CC#C` [compound 34, dimethyl-bis(prop-2-ynyl)ammonium], in test [1] (setting [4]), the IC50 is 2.65 nM. On to `C=CC[N+](C)(C)CC#N` [compound 35, allyl-(cyanomethyl)-dimethyl-ammonium], for which, in test [1] (setting [4]), the IC50 is 64.4 nM. Turning to `C#CC[N+](C)(C)CC#N` [compound 36, cyanomethyl-dimethyl-prop-2-ynyl-ammonium], the IC50 in test [1] (setting [4]) is 279 nM.

As to `C=CC[N+](C)(C)C` [compound 37], in test [1] (setting [4]), the IC50 was 50000 nM. The same measure, in the same setting: the figure for `C#CC[N+](C)(CC#C)CC#C` [compound 38, methyl-tris(prop-2-ynyl)ammonium] is 81000 nM. Turning to `C#CC[N+](CC#C)(CC#C)CC#C` [compound 39, tetrakis(prop-2-ynyl)ammonium], in test [1] (setting [4]), the IC50 came to 87900 nM. Consider `C#CC[N+](C)(C)CCl` [compound 40, chloromethyl-dimethyl-prop-2-ynyl-ammonium], for which the IC50 in test [1] (setting [4]) came to 0.0164 nM. Take `C#CC[N+](C)(C)CBr` [compound 41, bromomethyl-dimethyl-prop-2-ynyl-ammonium]: the IC50 in test [1] (setting [4]) was found to be 0.235 nM. In the case of `C#CC[N+](C)(C)CI` [compound 42, iodomethyl-dimethyl-prop-2-ynyl-ammonium], the IC50 in test [1] (setting [4]) worked out at 0.463 nM. With `C#CC[N+](C)(C)CCBr` [compound 43, 2-bromoethyl-dimethyl-prop-2-ynyl-ammonium], the IC50 in test [1] (setting [4]) came out at 140 nM.
